These results are taken from article PMC8316002, “Inhibition of Escherichia coli Lipoprotein Diacylglyceryl Transferase Is Insensitive to Resistance Caused by Deletion of Braun’s Lipoprotein” (Journal of Bacteriology, 2021).

Converted amounts (≈) assume the structure as drawn.

The subject of test [1] is CFT073 Δlgt. The test is described as follows: MIC assay, CFT073 Δlgt, Lgt 0.25% Ara. The format is cell-based, E. coli. How it is done:
(§1) Unless stated otherwise, E. coli cells were grown in Luria-Bertani (LB) medium (0.5% yeast extract, 1% tryptone, 0.5% NaCl) at 37°C. Where indicated, kanamycin (Kan) was added to culture media at a 50-μg/ml final concentration. MIC assays were performed based on Clinical and Laboratory Standards Institute (CLSI) guidelines. For in vitro growth curves, overnight cultures of WT CFT073, CFT073 Δlgt, and CFT073 Δlgt complemented with lgt from E. coli (lgt^Ec) or P. aeruginosa (lgt^Pa) were grown to mid-exponential phase (optical density at 600 nm [OD600] of 0.6) and then diluted to an OD600 of 0.1 to initiate growth curves. At various times, culture aliquots were diluted and plated in dilutions on LB+Kan agar, and CFU were enumerated in duplicates. Growth of MG1655 inducible deletion strains was measured by culturing in the presence of 2-fold dilutions of arabinose (starting arabinose concentrations for CFT073 and MG1655 inducible deletion strains were 4% and 0.8%, respectively). While […] was sufficient for WT growth of MG1655 Δlgt, 4% arabinose was used for CFT073 Δlgt based on comparing its growth to that of WT CFT073 as measured by CFU. OD600 growth measurements were performed using an EnVision 2101 multilabel reader plate reader (PerkinElmer) linked with Echo liquid handler (Labcyte). For time-kill experiments, bacteria were harvested in mid-exponential phase and treated with 12.5 μM G2824, 3.2 μM globomycin, and 1.6 μM vancomycin. CFU were enumerated at various times posttreatment. Bacterial culture medium containing 2% arabinose was used to induce lpp or lppΔK expression from pBad24 plasmids. Bacterial viability at different time points during the treatment was measured by enumerating CFU. Serum killing assays were carried out as previously described ([17]).

The subject of test [2] is CFT073 Δlgt. Briefly: MIC assay, CFT073 Δlgt, Lgt 4% Ara. It is filed as cell-based, E. coli. To be noted: Escherichia coli. How it is done: as §1
The subject of a further test is WT CFT073. The test is described as follows: MIC assay, WT CFT073 (Table 1). The format is cell-based, E. coli. To be noted: average of two independent experiments, each in duplicates, CLSI. The protocol: as §1
In a further test the test system is BW25113 cells, lgt gRNA. The test is described as follows: CRISPRi knockdown sensitization, lgt gRNA. The format is cell-based, E. coli. To be noted: 2 μM G2824, 0.05 μM globomycin or 0.016 μM ciprofloxacin; OD600 relative to untreated, versus scr or folA gRNA. From the text: (§2) The two-plasmid bacterial CRISPRi system pdCas9-bacteria_GNE and PGNRNA-bacteria_GNE are based on the AddGene plasmids 44249 and 44251 ([73]), respectively. The plasmid was synthesized in smaller DNA fragments (500 bp to 3 kb) (IDT gBlocks) and assembled by Gibson assembly (NEB) according to the manufacturer’s protocols. Plasmids were confirmed by sequencing (ELIM Bio). gRNAs were designed to target the 5′ end of the gene on the nontemplate strand using Benchling CRISPR software ([74]). gRNAs were cloned into PGNRNA-bacteria using Gibson assembly (NEB) according to the manufacturer’s protocols and sequence confirmed (ELIM Bio).
(§3) Bacterial cultures were grown overnight on LB agar supplemented with carbenicillin (50 μg/ml) and chloramphenicol (12.5 μg/ml) to maintain both plasmids, pdCas9-bacteria and PGNRNA-bacteria with each gRNA as appropriate. Cells were scraped from the plate into fresh medium. The OD600 was measured, and the culture was subsequently diluted to an OD600 0.001 in the presence or absence of G2824, globomycin, or ciprofloxacin. Two hundred microliters was transferred to a 96-well plate (Corning) and monitored for growth by measuring the OD600 (EnVision multimode plate reader; PerkinElmer). All treatments were performed in triplicates. The specificity of CRISPRi downregulation was measured using reverse transcriptase quantitative PCR (RT-qPCR).

The test system of another test is BW25113 cells, lspA gRNA. The test is described as follows: CRISPRi knockdown sensitization, lspA gRNA. The format is cell-based, E. coli. To be noted: 2 μM G2824, 0.05 μM globomycin or 0.016 μM ciprofloxacin; OD600 relative to untreated, versus scr or folA gRNA.
Text: as §2, §3

For another test, the system named is Lgt. Briefly: Lgt-dependent diacylglyceryl modification of peptide substrate (MS, SDS-PAGE). The format is biochemical, E. coli.

In general, MIC refers to the lowest concentration found to suppress growth. With `CCn1cc(C(=O)O)c(=O)c2cc(F)c(N3CCNCC3)cc21` [Norfloxacin], the MIC in the test with CFT073 Δlgt [1] (Escherichia coli) was 0.2 µM (≈ 0.0639 µg/mL); in the test with CFT073 Δlgt [2] it was 0.6 µM (≈ 0.192 µg/mL); against WT CFT073 (Escherichia coli) it was 0.4 µM (≈ 0.128 µg/mL).

As for `Cc1onc(-c2ccccc2)c1C(=O)N[C@@H]1C(=O)N2[C@@H]1SC(C)(C)[C@@H]2C(=O)O` [Oxacillin], the MIC is 12.5 µM (≈ 5.02 µg/mL) against CFT073 Δlgt [1] (Escherichia coli), over 100 µM in the test with CFT073 Δlgt [2] and over 100 µM against WT CFT073 (Escherichia coli).

For `CC1(C)S[C@@H]2[C@H](NC(=O)Cc3ccccc3)C(=O)N2[C@H]1C(=O)O` [Penicillin G], the figures for the minimum inhibitory concentration (MIC) against CFT073 Δlgt [1] (Escherichia coli), with CFT073 Δlgt [2] and in the test on WT CFT073 (Escherichia coli) were 0.8 µM (≈ 0.268 µg/mL), over 50 µM and over 50 µM, respectively.

As for `CO[C@H]1/C=C/O[C@@]2(C)Oc3c(C)c(O)c4c(O)c(cc(O)c4c3C2=O)NC(=O)/C(C)=C\C=C\[C@H](C)[C@H](O)[C@@H](C)[C@@H](O)[C@@H](C)[C@H](OC(C)=O)[C@@H]1C` [Rifamycin], the minimal inhibitory concentration (MIC) against CFT073 Δlgt [1] (Escherichia coli) was found to be 0.8 µM (≈ 0.558 µg/mL); against WT CFT073 (Escherichia coli), 6.3 µM (≈ 4.4 µg/mL).

For `Cc1c(N)nc([C@H](CC(N)=O)NC[C@H](N)C(N)=O)nc1C(=O)N[C@H](C(=O)N[C@H](C)[C@@H](O)[C@H](C)C(=O)N[C@H](C(=O)NCCC1=N[C@@H](c2nc(C(=O)NCCCCN=C(N)N)cs2)CS1)[C@@H](C)O)[C@@H](O[C@@H]1O[C@@H](CO)[C@@H](O)[C@H](O)[C@@H]1O[C@H]1O[C@H](CO)[C@@H](O)[C@H](OC(N)=O)[C@@H]1O)c1cnc[nH]1` [Zeocin], the minimal inhibitory concentration (MIC) against CFT073 Δlgt [1] (CFT073 Δlgt, Lgt 0.25% Ara (low Lgt level), average of two independent experiments, each in duplicates, CLSI) is 0.8 µM (≈ 1.14 µg/mL); with WT CFT073, 12.5 µM (≈ 17.8 µg/mL).

As for `O=C(O)c1cn(C2CC2)c2cc(N3CCNCC3)c(F)cc2c1=O` [ciprofloxacin], the “sensitization by decreased lgt expression” value in the test with BW25113 cells, lgt gRNA is recorded as “did not lead to increased sensitivity”. Besides, the “sensitization by decreased lspA expression” value with BW25113 cells, lspA gRNA is “did not lead to increased sensitivity”.

For “MQLNKVLKGLMIALPVMAIAACSSNKN [Pal-IAAC, peptide substrate derived from the Pal lipoprotein]”, the “diacylglyceryl modification by SDS-PAGE” value with Lgt (SDS-PAGE, Coomassie blue) is “is Lgt dependent”. Besides, the “diacylglyceryl modification, mass addition” value with Lgt (mass spectrometry, Lgt dependent) is recorded as 552 Da.
